Data on one molecule can be found in patent US11826369B2, “Targeting the TLK1/NEK1 axis in prostate cancer” (Board of Supervisors of Louisiana State University and …, priority 2019, dated 2023).

This series concerns C. elegans. The series can be described thus: Behavioral assays in C. elegans. The series is classed as in vivo. As to the method:
FIGS. 19A-19C show behavioral assays in C. elegans. In FIG. 15A, for the pharyngeal pumping assay, wild-type animals (N2 strain) were transferred to plates with diluted DMSO (Control) or drug (J-54 or trifluoperazine) at 160 μM final concentration for 90 min before quantifying pharyngeal pumping see SI methods). The inventors counted visible movement of the grinder (pharyngeal contractions) for 30 sec to obtain the pumping rate (N=45). […] Inhibition of pharyngeal pumping by trifluoperazine (TFP), a typical PTH antipsychotic, is attributed to its known activity as a dopamine and calmodulin antagonist. In FIG. 15B. foraging, regulated by serotonin and dopamine, was studied in wild-type animals evaluated in the presence of DMSO (Control) or J54 at a high dose of 160 μM vs. TFP at 40 μM. The number of omega turns (head touches body) and reversals were then counted over the next 3 min to quantify search behavior for each group (N=13 per group). […] Dopamine produces immobility in C. elegans after 2-3 hr of exposure. Antipsychotic drugs, such as haloperidol, that potently block D2 dopamine receptors largely counteract the effects of dopamine, i.e., more animals continue to move on plates that include dopamine plus drug. Wild-type animals were incubated on 60 agar plates with bacteria and diluted DMSO (Control) or J54 or haloperidol at 160 μM final concentrations. After 1 hr on these plates, they were transferred to 60 mm agar plates with bacteria that also contained dopamine (final concentration 25 mM) plus diluted DMSO (Control) or else J-54 or haloperidol at final concentrations of 160 μM. After 3 hr on the dopamine plates, the inventors examined movement and counted animals as moving if they traversed half their body length in either the forward or backward direction during a 5-sec observation period. The inventors then calculated the percentage of animals moving and repeated this experiment three times to confirm the effects of drug.
We then did a general assessment of mice following injections of J54. […]

For the molecule `c1ccc2c(c1)Sc1ccccc1N2CCN1CCOCC1` [J54, 4-(2-(10H-phenothiazin-10-yl)ethyl) morpholine], the pharyngeal pumping rate result (160 μM, 90 min) is “reduced the pumping rate but to a lesser extent than a much lower concentration of TFP”. For the same molecule, the toxicity to worms entry (prolonged exposure) was “not toxic to worms even after prolonged exposure”. Also, the “behavioral effects attributable to DR2 activity” value (three studies) is “much weaker behavioral effects”.
